This passage reports logD results from ChEMBL document CHEMBL5584342, “The Missing Link(er): A Roadmap to Macrocyclization in Drug Discovery” (J Med Chem, 2024).

The series can be described thus: Lipophilicity, log D of compound at pH 7.4. As to conditions: buffer.

SMILES strings stand for the structures.

Take `CO[C@H]1/C(F)=C/C[C@H](C)[C@@H](C)S(=O)(=O)NC(=O)c2ccc3c(c2)N(C[C@@H]2CCO[C@H]21)C[C@@]1(CCCc2cc(Cl)ccc21)CO3`: the pH-dependent lipophilicity (logD) is 3.
